Source: ChEMBL document CHEMBL1201862, “PubChem BioAssay data set” (2004)
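How tested: cells in 96-well plates exposed to compound for 48 hours at five concentrations. GI50 = concentration required for 50% inhibition of growth.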 The source made the active and inactive calls. Cut-off read from the data, not from the text of the source: active = GI50 up to about 1.1 µM and inactive = higher.

Tests used:
Test in all cases: DTP human tumour cell line panel, 48 h
KM-20L2 = system: KM-20L2
DLD-1 = system: DLD-1
LXFL 529 = system: LXFL 529
XF498 = system: XF498
SNB-78 = system: SNB-78
M19-MEL = system: M19-MEL
RXF 631 = system: RXF 631
HOP-18 = system: HOP-18
DMS-273 = system: DMS-273

O=C1N[C@@H]2CCCC[C@@H]2C12CCCCC2 was tested, and the GI50 (KM-20L2) was > 100 µM (inactive), the GI50 (DLD-1) was > 100 µM (inactive) and the GI50 (LXFL 529) was > 100 µM (inactive). The GI50 (XF498) was > 100 µM (inactive), the GI50 (SNB-78) was > 100 µM (inactive) and the GI50 (M19-MEL) was > 100 µM (inactive). The GI50 (RXF 631) was > 100 µM (inactive) and the GI50 (HOP-18) was > 100 µM (inactive).

With COc1nc(N)c(C(=O)CCl)c(=O)n1C the GI50 (KM-20L2) was 18.3 µM (inactive), the GI50 (DLD-1) was 13.2 µM (inactive) and the GI50 (LXFL 529) was 13.6 µM (inactive). The GI50 (XF498) was 16.4 µM (inactive), the GI50 (SNB-78) was 12 µM (inactive) and the GI50 (RXF 631) was 15.3 µM (inactive). For the same compound, the GI50 (HOP-18) was 16.4 µM (inactive).

With NS(=O)(=O)c1ccc(NC(=O)c2cccc3cc4ccccc4nc23)cc1 the GI50 (KM-20L2) was 12.6 µM (inactive), the GI50 (DLD-1) was 17.1 µM (inactive) and the GI50 (LXFL 529) was 25 µM (inactive). For the same compound, the GI50 (XF498) was 49.7 µM (inactive), the GI50 (SNB-78) was > 100 µM (inactive) and the GI50 (M19-MEL) was 37.2 µM (inactive). For the same compound, the GI50 (DMS-273) was 9.44 µM (inactive), the GI50 (RXF 631) was 29.2 µM (inactive) and the GI50 (HOP-18) was > 100 µM (inactive).

In the case of Cc1oc2c(C)c3oc(=O)cc(C)c3cc2c1CN1C(=O)C2OCCOCCOCCOCCOCCO[C@H]2C1=O (stereo partly specified), the GI50 (KM-20L2) is reported as > 100 µM (inactive), the GI50 (DLD-1) is reported as > 100 µM (inactive) and the GI50 (LXFL 529) is reported as > 100 µM (inactive). The GI50 (SNB-78) was > 100 µM (inactive), the GI50 (M19-MEL) was > 100 µM (inactive) and the GI50 (DMS-273) was > 100 µM (inactive). For the same compound, the GI50 (RXF 631) was 26.7 µM (inactive) and the GI50 (HOP-18) was > 100 µM (inactive).

For COc1cc(-c2ccc(/N=N/c3ccc4c(S(=O)(=O)O)cc(S(=O)(=O)O)c(N)c4c3O)c(OC)c2)ccc1/N=N/c1ccc2c(S(=O)(=O)O)cc(S(=O)(=O)O)c(N)c2c1O, the GI50 (KM-20L2) was > 100 µM (inactive), the GI50 (DLD-1) was > 100 µM (inactive) and the GI50 (XF498) was 36.1 µM (inactive). For the same compound, the GI50 (SNB-78) was > 100 µM (inactive), the GI50 (M19-MEL) was > 100 µM (inactive) and the GI50 (DMS-273) was > 100 µM (inactive). For the same compound, the GI50 (HOP-18) was > 44.3 µM (inactive).

COc1cc(/C=C(/C#N)C(N)=O)ccc1O was tested, and the GI50 (KM-20L2) was > 100 µM (inactive), the GI50 (DLD-1) was > 100 µM (inactive) and the GI50 (XF498) was > 100 µM (inactive). For the same compound, the GI50 (SNB-78) was > 100 µM (inactive), the GI50 (M19-MEL) was > 100 µM (inactive) and the GI50 (DMS-273) was > 100 µM (inactive). The GI50 (HOP-18) was > 40.7 µM (inactive).

In the case of Cc1ccc2nc(/C(=C/c3ccc(/C=C(\NC(=O)c4ccccc4)c4nc5ccc(C)cc5[nH]4)c(C)c3)NC(=O)c3ccccc3)[nH]c2c1, the GI50 (KM-20L2) is reported as 20.3 µM (inactive), the GI50 (DLD-1) is reported as 3.02 µM (inactive) and the GI50 (LXFL 529) is reported as 1.5 µM (inactive). The GI50 (XF498) was 3.76 µM (inactive), the GI50 (SNB-78) was 23.1 µM (inactive) and the GI50 (M19-MEL) was 4.36 µM (inactive). The GI50 (DMS-273) was 22.6 µM (inactive) and the GI50 (RXF 631) was 19.2 µM (inactive).

In the case of O=c1cccccc1NCCOCCNc1cccccc1=O, the GI50 (KM-20L2) is reported as > 100 µM (inactive), the GI50 (DLD-1) is reported as > 100 µM (inactive) and the GI50 (LXFL 529) is reported as > 100 µM (inactive). The GI50 (SNB-78) was > 100 µM (inactive), the GI50 (M19-MEL) was > 100 µM (inactive) and the GI50 (DMS-273) was > 100 µM (inactive). For the same compound, the GI50 (HOP-18) was 29 µM (inactive).

For CCCCCCCCCCCCCCNCC(OC)OC, the GI50 (KM-20L2) was 14.4 µM (inactive), the GI50 (DLD-1) was 14.6 µM (inactive) and the GI50 (LXFL 529) was 16.3 µM (inactive). For the same compound, the GI50 (XF498) was 16.7 µM (inactive), the GI50 (SNB-78) was 17.4 µM (inactive) and the GI50 (M19-MEL) was 18.1 µM (inactive). The GI50 (DMS-273) was 17.5 µM (inactive), the GI50 (RXF 631) was 15.2 µM (inactive) and the GI50 (HOP-18) was 13.3 µM (inactive).

For NC(=O)CCC(N=C(N)c1csc(C2OC(CO)C(O)C2O)n1)C(=O)O (stereo unspecified), the GI50 (KM-20L2) was > 100 µM (inactive), the GI50 (DLD-1) was > 100 µM (inactive) and the GI50 (LXFL 529) was > 100 µM (inactive). For the same compound, the GI50 (XF498) was > 100 µM (inactive), the GI50 (SNB-78) was > 100 µM (inactive) and the GI50 (DMS-273) was > 100 µM (inactive). For the same compound, the GI50 (HOP-18) was < 0.01 µM (active).

With CN(C)CCC1(C2=CCCC2)CC/C(=C\c2ccc3c(c2)OCO3)C1=O (stereo unspecified) the GI50 (KM-20L2) was 14.2 µM (inactive), the GI50 (DLD-1) was 17.1 µM (inactive) and the GI50 (LXFL 529) was 12.9 µM (inactive). For the same compound, the GI50 (SNB-78) was 16.8 µM (inactive), the GI50 (M19-MEL) was 18.6 µM (inactive) and the GI50 (RXF 631) was 15.2 µM (inactive). The GI50 (HOP-18) was 13.6 µM (inactive).

With CC#N.O[C@@H]1CCCC[C@H]1O.O[C@@H]1CCCC[C@H]1O.[TeH2] the GI50 (KM-20L2) was 69.7 µM (inactive), the GI50 (DLD-1) was 32.2 µM (inactive) and the GI50 (LXFL 529) was 37.7 µM (inactive). The GI50 (SNB-78) was > 100 µM (inactive), the GI50 (M19-MEL) was 21.5 µM (inactive) and the GI50 (DMS-273) was 18.1 µM (inactive). For the same compound, the GI50 (RXF 631) was 22.8 µM (inactive) and the GI50 (HOP-18) was 23.3 µM (inactive).

With CC1=C2C(O)C(C(C)C(=O)NCC(C)C)CCC2(C)C=CC1=O (stereo unspecified) the GI50 (KM-20L2) was > 100 µM (inactive), the GI50 (DLD-1) was > 100 µM (inactive) and the GI50 (XF498) was > 100 µM (inactive). The GI50 (SNB-78) was > 100 µM (inactive), the GI50 (M19-MEL) was > 100 µM (inactive) and the GI50 (DMS-273) was > 100 µM (inactive). The GI50 (HOP-18) was > 100 µM (inactive).

CCCCCCCC(=O)OC(COC(=O)Cc1ccccc1)COC(=O)C(C)(C)C (stereo unspecified) was tested, and the GI50 (KM-20L2) was > 100 µM (inactive), the GI50 (DLD-1) was > 100 µM (inactive) and the GI50 (LXFL 529) was 95.3 µM (inactive). For the same compound, the GI50 (M19-MEL) was > 100 µM (inactive), the GI50 (DMS-273) was > 100 µM (inactive) and the GI50 (RXF 631) was > 100 µM (inactive). The GI50 (HOP-18) was > 100 µM (inactive).

For Cn1c(=O)c2nc3c4ccccc4c(=O)n(C)c3nc2n(C)c1=O, the GI50 (KM-20L2) was > 100 µM (inactive), the GI50 (LXFL 529) was > 100 µM (inactive) and the GI50 (SNB-78) was > 100 µM (inactive). The GI50 (M19-MEL) was > 100 µM (inactive).

In the case of COC(=O)c1sc(C(=O)OC)c2c1C[S+]([O-])C2, the GI50 (KM-20L2) is reported as > 100 µM (inactive), the GI50 (DLD-1) is reported as > 100 µM (inactive) and the GI50 (LXFL 529) is reported as > 100 µM (inactive). For the same compound, the GI50 (XF498) was 38.7 µM (inactive), the GI50 (SNB-78) was > 100 µM (inactive) and the GI50 (M19-MEL) was > 100 µM (inactive). For the same compound, the GI50 (DMS-273) was > 100 µM (inactive), the GI50 (RXF 631) was > 100 µM (inactive) and the GI50 (HOP-18) was > 100 µM (inactive).

For C=CCn1c2ccccc2c2c(C)c3cnccc3c(C)c21, the GI50 (KM-20L2) was 6.75 µM (inactive), the GI50 (DLD-1) was 7.08 µM (inactive) and the GI50 (XF498) was 12.4 µM (inactive). For the same compound, the GI50 (SNB-78) was 22.3 µM (inactive), the GI50 (M19-MEL) was 9.23 µM (inactive) and the GI50 (DMS-273) was 6.92 µM (inactive). For the same compound, the GI50 (HOP-18) was > 125 µM (inactive).

O=S(=O)(c1ccccc1)c1nccs1 was tested, and the GI50 (KM-20L2) was > 100 µM (inactive), the GI50 (DLD-1) was > 100 µM (inactive) and the GI50 (LXFL 529) was > 100 µM (inactive). The GI50 (XF498) was > 100 µM (inactive), the GI50 (SNB-78) was > 100 µM (inactive) and the GI50 (M19-MEL) was > 100 µM (inactive). For the same compound, the GI50 (DMS-273) was > 100 µM (inactive) and the GI50 (HOP-18) was > 100 µM (inactive).

With Cn1cc(NC(=O)c2cc(NC(=O)CCCCCCCC(=O)Nc3cc(C(=O)Nc4cc(C(=O)NCCC(=N)N)n(C)c4)n(C)c3)cn2C)cc1C(=O)NCCC(=N)N the GI50 (KM-20L2) was > 100 µM (inactive), the GI50 (DLD-1) was 30.9 µM (inactive) and the GI50 (LXFL 529) was 12.4 µM (inactive). For the same compound, the GI50 (XF498) was 29.2 µM (inactive), the GI50 (SNB-78) was 35.2 µM (inactive) and the GI50 (M19-MEL) was 5.43 µM (inactive). The GI50 (DMS-273) was 11.2 µM (inactive), the GI50 (RXF 631) was 56.9 µM (inactive) and the GI50 (HOP-18) was 34 µM (inactive).

In the case of C=CC12CN(C)C3C4COC(CC41)C1(C(=O)Nc4ccccc41)C32 (stereo unspecified), the GI50 (KM-20L2) is reported as > 151 µM (inactive), the GI50 (DLD-1) is reported as 198 µM (inactive) and the GI50 (XF498) is reported as 21.5 µM (inactive). The GI50 (SNB-78) was 176 µM (inactive), the GI50 (M19-MEL) was > 148 µM (inactive) and the GI50 (DMS-273) was > 200 µM (inactive). The GI50 (HOP-18) was > 200 µM (inactive).

In the case of C=C(C)C(=O)OC1C/C(CO)=C\C(O)C/C(C)=C/C2OC(=O)C(=C)C21 (stereo unspecified), the GI50 (KM-20L2) is reported as 30.3 µM (inactive), the GI50 (LXFL 529) is reported as 16.9 µM (inactive) and the GI50 (XF498) is reported as 15.2 µM (inactive). For the same compound, the GI50 (SNB-78) was 46.3 µM (inactive), the GI50 (M19-MEL) was 25.6 µM (inactive) and the GI50 (DMS-273) was 27.5 µM (inactive). The GI50 (RXF 631) was 18.4 µM (inactive) and the GI50 (HOP-18) was 31.3 µM (inactive).

Cc1cccc(Cl)c1NC(N)=S was tested, and the GI50 (KM-20L2) was 50.8 µM (inactive), the GI50 (DLD-1) was 57.7 µM (inactive) and the GI50 (LXFL 529) was 31.8 µM (inactive). The GI50 (SNB-78) was 77.1 µM (inactive), the GI50 (M19-MEL) was > 100 µM (inactive) and the GI50 (DMS-273) was 20.5 µM (inactive). The GI50 (RXF 631) was 35.9 µM (inactive) and the GI50 (HOP-18) was 11.1 µM (inactive).
